{
  "source": "patent US11396511B2",
  "about": "“Substituted 9,13b-dihydro-1H-dibenzo[c,f]imidazo[1,5-a]azepin-3-ylbenzamides as anti-inflammatory and analgesic agents” (FRONTBIO CO., LTD., priority 2017, dated 2022)",
  "key": {"[1]": {"system": "streptozotocin-induced diabetic mice", "assay": "Von-frey test in diabetic neuropathy models", "type": "in vivo", "design": "threshold values (Von-frey test): unit not given here", "description": "65 mg/kg of streptozotocin (Sigma Corp., USA) was dissolved at a concentration of 15 mg/ml in 0.1 M citrate buffer at pH 4.5 and the resulting solution was administered intraperitoneally to mice. Blood glucose levels were measured 1 week after administration and streptozotocin-induced diabetic mice were chosen.\n(§1) After damage to the sciatic nerve, allodynia induced by the mechanical stimulus was measured. Mice were housed in acrylic chambers on a steel mesh floor and acclimated for ≥60 min before testing. Continuous responses were evaluated using Von-frey filaments by the up-down method. The filaments were brought into vertical contact with the affected left soles and the contact was maintained for 5-6 sec. The response was considered to be positive when the mouse rapidly avoided the stimulus, startled or licked its sole. The Von-frey filaments were first used to stimulate the mice.\nThe inhibitory effects of the test substances on pain were determined in diabetic neuropathy models. To this end, after oral administration of each test substance at concentrations of 10, 20, 40, and 80 mg/kg, threshold values were measured at different periods of time through Von-frey test."}, "[2]": {"system": "monosodium urate (MSU) models", "assay": "Von-frey test in monosodium urate models", "type": "in vivo, mice", "design": "threshold values (Von-frey test): unit not given here", "conditions": "monosodium urate model; for threshold values (Von-frey test): basal", "description": "100 mg of uric acid and 60 μl of 10 N NaOH were dissolved in 20 ml of distilled water and the pH of the solution was adjusted to 7.2-7.4 with HCl (1 N) at 60° C. After stirring at room temperature for 5 days, the solution was plated in a 1 ml tube and stored for 4 days. The solution was vortexed overnight until needle-like crystals appeared. The solution was washed twice with 100% ethanol and centrifuged at 3000 rpm for 2 min. Finally, the MSU crystals were collected and dissolved in […] of endotoxin-free PBS. The resulting sample were injected intra-articularly into mice (MSU 300 μg/10 μl each) under anesthesia. At 24 h post-injection, pain or ankle swelling were measured to determine the analgesic efficacy of a test substance.\nas §1\nThe analgesic efficacies of the test substances were evaluated in monosodium urate models. To this end, after oral administration of each test substance at concentrations of 10, 20, 40, and 80 mg/kg, threshold values were measured at different periods of time through Von-frey test."}, "mice": {"system": "mice", "assay": "Hot-plate test", "type": "in vivo", "conditions": "for response time to the thermal stimulus (hot-plate): 30 min pretreatment, in s (unit assumed)", "description": "Hot-plate test was conducted using an electric heater to measure the analgesic activity of the test substances on the acute thermal stimulus. Experimental animals were injected with the test drugs and a vehicle (control) and were sequentially placed on an electric heater (hot-plate). The response time to the thermal stimulus ([…]) was defined as the time until the experimental animal licked their paws. Male mice weighing 22-25 g, aged 4-5 weeks, were used as the test animals (10 per group).\n30 min after pretreatment with the compound 3 (E-S) at concentrations of 10, 20, 40, and 80 mg/kg, hot-plate test was conducted to assess the analgesic efficacy of the compound 3. […] The analgesic efficacy of the compound 4 (E-A) was assessed in the same manner as that of the compound 3."}, "MAPK": {"system": "MAPK", "assay": "Western blot analysis, MAPK signaling by LPS signals", "type": "cell-based", "description": "(§2) Cells were harvested, washed with 1×PBS, and suspended by adding a mixture of a protein extraction buffer (150 mM NaCl, 50 mM Tris-HCl pH 7.4, 5 mM EDTA pH 8.0, 1% NP-40) and a protease inhibitor cocktail. Then, the reaction was allowed to proceed in ice for 20 min, sonicated, and centrifuged (13,000 rpm, 30 min). The concentration of proteins in the supernatant was quantified by a BCA protein assay and proteins were separated on the basis of size on an SDS-PAGE gel. Thereafter, proteins were transferred to a PVDF membrane and blocked with skim milk for 1 h. Primary and secondary antibodies were coupled and photosensitized with ECL solution to determine the expression levels of desired proteins."}, "Akt": {"system": "Akt", "assay": "Western blot analysis, Akt signaling by LPS signals", "type": "cell-based", "description": "as §2"}, "Raw 264.7 cells": {"system": "Raw 264.7 cells", "assay": "Measurement of NO production in LPS-stimulated Raw 264.7 cells", "type": "cell-based", "description": "Raw 264.7 cells were plated in a 96-well cell culture plate (50,000 cells/well). Lipopolysaccharide (LPS) was diluted to 100 ng/ml and the dilution was added to the cell culture media The LPS stimulus was applied for 24 h to induce the activity of the Raw 264.7 cells and supernatants (50 μl each) obtained from the 96-well cell culture plate were plated in a new plate. 50 μl of a sulfanilamide solution was added and the reaction was allowed to proceed for 10 min. 50 μl of a NED solution was added and the reaction was allowed to proceed for 10 min. The amount of NO produced from the cells in the cell culture media was determined by measuring the absorbance at a wavelength of 540 nm."}, "[3]": {"conditions": "oral 10, 20, 40, 80 mg/kg tested"}},
  "note": "Several values for one entry are separate records, joined by “and”; a condition that tells them apart may be missing. Equal entries are not always repeated.",
  "data": [
    {"smiles": "CC(=O)Oc1ccccc1C(=O)NC1=NCC2c3ccccc3Cc3ccccc3N12", "note": "(centres unmarked) [E-A, 2-((9,13b-dihydro-1H-dibenzo[c,f]imidazo[1,5-a]azepin-3-yl)carbamoyl)phenyl acetate]", "values": [
      {"measurement": "threshold values (Von-frey test)", "setting": "[1]; oral 10 mg/kg, 1 h", "result": 0.260},
      {"measurement": "threshold values (Von-frey test)", "setting": "[1]; oral 10 mg/kg, 2 h", "result": 0.263},
      {"measurement": "threshold values (Von-frey test)", "setting": "[1]; oral 10 mg/kg, 3 h", "result": 0.324},
      {"measurement": "threshold values (Von-frey test)", "setting": "[1]; oral 10 mg/kg, 4 h", "result": 0.286},
      {"measurement": "threshold values (Von-frey test)", "setting": "[1]; oral 10 mg/kg, 5 h", "result": 0.225},
      {"measurement": "threshold values (Von-frey test)", "setting": "[1]; oral 10 mg/kg, basal", "result": 0.286},
      {"measurement": "threshold values (Von-frey test)", "setting": "[1]; oral 20 mg/kg, 1 h", "result": 0.263},
      {"measurement": "threshold values (Von-frey test)", "setting": "[1]; oral 20 mg/kg, 2 h", "result": 0.324},
      {"measurement": "threshold values (Von-frey test)", "setting": "[1]; oral 20 mg/kg, 3 h", "result": 0.321},
      {"measurement": "threshold values (Von-frey test)", "setting": "[1]; oral 20 mg/kg, 4 h", "result": 0.247},
      {"measurement": "threshold values (Von-frey test)", "setting": "[1]; oral 20 mg/kg, 5 h", "result": 0.225},
      {"measurement": "threshold values (Von-frey test)", "setting": "[1]; oral 20 mg/kg, basal", "result": 0.186},
      {"measurement": "threshold values (Von-frey test)", "setting": "[1]; oral 40 mg/kg, 1 h", "result": 0.286},
      {"measurement": "threshold values (Von-frey test)", "setting": "[1]; oral 40 mg/kg, 2 h", "result": 0.458},
      {"measurement": "threshold values (Von-frey test)", "setting": "[1]; oral 40 mg/kg, 3 h", "result": 0.419},
      {"measurement": "threshold values (Von-frey test)", "setting": "[1]; oral 40 mg/kg, 4 h", "result": 0.391},
      {"measurement": "threshold values (Von-frey test)", "setting": "[1]; oral 40 mg/kg, 5 h", "result": 0.186},
      {"measurement": "threshold values (Von-frey test)", "setting": "[1]; oral 40 mg/kg, basal", "result": 0.247},
      {"measurement": "threshold values (Von-frey test)", "setting": "[1]; oral 80 mg/kg, 1 h", "result": 0.391},
      {"measurement": "threshold values (Von-frey test)", "setting": "[1]; oral 80 mg/kg, 2 h", "result": 0.391},
      {"measurement": "threshold values (Von-frey test)", "setting": "[1]; oral 80 mg/kg, 3 h", "result": 0.247},
      {"measurement": "threshold values (Von-frey test)", "setting": "[1]; oral 80 mg/kg, 4 h", "result": 0.286},
      {"measurement": "threshold values (Von-frey test)", "setting": "[1]; oral 80 mg/kg, 5 h", "result": 0.186},
      {"measurement": "threshold values (Von-frey test)", "setting": "[1]; oral 80 mg/kg, basal", "result": 0.208},
      {"measurement": "analgesic efficacy, Von-frey test (in words)", "setting": "[1]; oral 10, 20, 40, 80 mg/kg", "result": "concentration-dependent from 1 h after treatment and was maintained until 3 h after treatment"},
      {"measurement": "concentration of highest analgesic efficacy, Von-frey test", "setting": "[1]; [3]", "result": "40 mg/kg and 80 mg/kg"},
      {"measurement": "threshold values (Von-frey test)", "setting": "[2]; oral 10 mg/kg", "result": 0.186},
      {"measurement": "threshold values (Von-frey test)", "setting": "[2]; oral 20 mg/kg", "result": 0.208},
      {"measurement": "threshold values (Von-frey test)", "setting": "[2]; oral 40 mg/kg", "result": 0.190},
      {"measurement": "threshold values (Von-frey test)", "setting": "[2]; oral 80 mg/kg", "result": 0.186},
      {"measurement": "analgesic efficacy, Von-frey test (in words)", "setting": "[2]; oral 10, 20, 40, 80 mg/kg", "result": "concentration-dependent until 2-3 h after treatment"},
      {"measurement": "concentration of highest analgesic efficacy, Von-frey test", "setting": "[2]; [3]", "result": 80, "unit": "mg/kg"},
      {"measurement": "response time to the thermal stimulus (hot-plate)", "setting": "mice; 10 mg/kg", "result": 9.58},
      {"measurement": "response time to the thermal stimulus (hot-plate)", "setting": "mice; 20 mg/kg", "result": 14.98},
      {"measurement": "response time to the thermal stimulus (hot-plate)", "setting": "mice; 40 mg/kg", "result": 17.42},
      {"measurement": "response time to the thermal stimulus (hot-plate)", "setting": "mice; 80 mg/kg", "result": 18.30},
      {"measurement": "analgesic efficacy in hot-plate test (in words)", "setting": "mice; 10, 20, 40, 80 mg/kg", "result": "observed in the 2nd phase"},
      {"measurement": "effect on MAPK signaling by LPS signals", "setting": "MAPK", "result": "found to affect both MAPK signaling and Akt signaling by LPS signals and reduce the activity of proteins"},
      {"measurement": "effect on Akt signaling by LPS signals", "setting": "Akt", "result": "found to affect both MAPK signaling and Akt signaling by LPS signals and reduce the activity of proteins"},
      {"measurement": "inhibition at 12.5 µM", "setting": "Raw 264.7 cells; Mus musculus, RAW264.7, 12.5 μM, LPS 100 ng/ml, 24 h", "result": 0, "unit": "%"},
      {"measurement": "inhibition at 25 µM", "setting": "Raw 264.7 cells; Mus musculus, RAW264.7, 25 μM, LPS 100 ng/ml, 24 h", "result": 17.1, "unit": "%"},
      {"measurement": "inhibition at 50 µM", "setting": "Raw 264.7 cells; Mus musculus, RAW264.7, 50 μM, LPS 100 ng/ml, 24 h", "result": 40.1, "unit": "%"},
      {"measurement": "inhibition at 100 µM", "setting": "Raw 264.7 cells; Mus musculus, RAW264.7, 100 μM, LPS 100 ng/ml, 24 h", "result": 52.4, "unit": "%"},
      {"measurement": "reduction of NO production (in words)", "setting": "Raw 264.7 cells; together with LPS (100 ng/ml)", "result": "concentration-dependent reduction in NO production"}
    ]}
  ]
}
